Experimental data: patent publication US20130117887A1, “Herbicide resistant Camelina Sativa” (Agragen Inc, priority 2010, published 2013)

Legend:
[1] = tested on: transgenic C. sativa cv. Celine lines VK6-A1-No24 and VK6-A1-No26 (35S promoter, ALS W574 mutant); assay: In vitro leaf segment test, transgenic lines; assay type: cell-based, Camelina sativa; settings: media with 0.001, 0.01, 0.1, 1.0 mg/l herbicide, FIG. 13
Source text: (§1) FIG. 13 In vitro leaf segment test of two transgenic C. sativa cv. Celine lines VK6-A1-No24 (shown as 24 on Petri dishes) and VK6-Al-No26 (shown as 26 on Petri dishes). As a control, leaf segments of herbicide resistant natural mutant of Camelina microcarpa (C.m.) and leaf segments of susceptible C. sativa (C.s.) were used. Leaf segments of transgenic plants are resistant to the herbicides, while non-transgenic Camelina sativa is susceptible. The media in Petri dishes contains herbicides in various concentrations from 0 mg/l in control plate to 0.001, 0.01, 0.1, 1.0 mg/l of IMI, MSU and CSU.
(§2) Celine lines VK6-A1-No24 and VK6-A1-No26 transformed with Al construct (35S promoter—ALS W574 mutant—35S terminator). As controls, we used leaf segments of herbicide resistant natural ALS mutant of Camelina microcarpa that has broad resistance to class-2 herbicides and leaf segments of susceptible Camelina sativa. From the figure it can be clearly seen that leaf segments of transgenic plants are resistant to the herbicides, while non-transgenic Camelina sativa is susceptible.

[2] = tested on: transgenic Camelina sativa lines bearing P197S mutated ALS gene; assay: Seedling herbicide assay, transgenic lines bearing P-mutated (P197S) ALS gene; assay type: in vivo; settings: for Effect as compared to control / Highest surviving concentration: T1, P197S
Experimental: Calena and A 10 (VK14A10.16) of the second generation (T1) Camelina sativa c. Blane Creek. The seedlings were grown one week on various concentrations of herbicides MSU, CSU and IMI. The concentrations are shown in mg/l.
(§3) Seedlings of the developed transgenic lines of Camelina sativa, cultivars Blane Creek and Calena second (T1) and fourth (T3) generations were exposed to various concentration of three herbicides: imidazolinone (IMI), chlorsulfuron (CSU) and metsulfuron (MSU). Resistance of the transgenic lines was compared to control non-transgenic seedlings of C. sativa cv. Blane Creek.
(§4) Seeds were sterilized in 2% Na-hypocloride and placed on wet filter paper in sterile conditions to allow germination. On the next day well-germinated seedlings were transferred on Petri dishes containing MS (Murasige-Scoog) 0.7% agar (without sucrose or hormones). Each dish contained one from the three herbicides in particular concentration (0.0001, 0.001, 0.01, 0.1, 1.0, 10, 100 mg/l). After one week of cultivation in vitro (+25° C./+18° C.; light/dark) the seedlings were photographed (as shown on the FIGS. 16A-16F). The highest survival concentration was found for each transgenic line and for each herbicide and compared to the non-transgenic control.

[3] = tested on: transgenic Camelina sativa lines bearing A122T mutated ALS gene; assay: Seedling herbicide assay, transgenic lines bearing A-mutated (A122T) ALS gene; assay type: in vivo; settings: for Effect as compared to control / Highest surviving concentration: T1, A122T
Experimental: Calena, as well as A9.1 (VK14A9.1) and A9.2 (VK14A9.4.2) of the second generation (T1) Camelina sativa v. Blane Creek. The seedlings were grown one week on the various concentrations of herbicides MSU, CSU and IMI. The concentrations are shown in mg/l. Control plate has no herbicide in the grown media.
as §3, §4

[4] = tested on: transgenic Camelina sativa lines bearing P197S-W574L mutated ALS gene; assay: Seedling herbicide assay, transgenic lines bearing double (PW) mutated ALS gene; assay type: in vivo; settings: for Effect as compared to control / Highest surviving concentration: Blane Creek, T3, P197S-W574L
Experimental: Blane Creek. The seedlings were grown one week on the various concentrations of herbicides MSU, CSU and IMI. The concentrations are shown in mg/l. Control plate has no herbicide in the growth media.
as §3, §4

[5] = tested on: transgenic Camelina sativa lines bearing W574L mutated ALS gene; assay: Seedling herbicide assay, transgenic lines bearing W-mutated (W574L) ALS gene; assay type: in vivo; settings: for Effect as compared to control / Highest surviving concentration: Blane Creek
Experimental: Blane Creek and ALS23.3 (VK10A2.3) of the […] (T3) of Camelina sativa v. Blane Creek. The seedlings were grown one week on various concentrations of herbicides MSU, CSU and IMI. The concentrations are shown in mg/l. Control plate has no herbicide in the grown media.
as §3, §4

[6] = tested on: non-transgenic susceptible Camelina sativa leaf segments; assay: In vitro leaf segment test, non-transgenic control; assay type: cell-based; settings: media with 0.001, 0.01, 0.1, 1.0 mg/l herbicide, FIG. 13
Source text: as §1, §2

[7] = tested on: non-transgenic seedlings of C. sativa cv. Blane Creek (wild type); assay: Seedling herbicide assay, highest survival concentration, non-transgenic control; assay type: in vivo, Camelina sativa; settings: for Highest surviving concentration: seedlings one week on MS agar
Source text: as §3, §4

[8] = tested on: transgenic Camelina sativa lines bearing A122T-P197S-W574L mutated ALS gene; assay: Seedling herbicide assay, transgenic lines bearing triple (APW) mutated ALS gene; assay type: in vivo; settings: Blane Creek, T3, A122T-P197S-W574L
Experimental: Blane Creek. The seedlings were grown one week on various concentrations of herbicides MSU, CSU and IMI. The concentrations are shown in mg/l. Control plate has no herbicide in the grown media.
as §3, §4

[9] = line A10 (VK14A10.16), Blane Creek
[10] = line A9.1 (VK14A9.1), Blane Creek
[11] = line A9.2 (VK14A9.4.2), Blane Creek
[12] = line ALS23.3 (VK10A2.3), T3, W574L

SMILES	response of leaf segments to the herbicides [1]	Effect as compared to control ([2]; line A4 (VK9A4.4.2), Calena)	Highest surviving concentration ([2]; line A4 (VK9A4.4.2), Calena)	Effect as compared to control [2, 9]	Highest surviving concentration [2, 9]	Effect as compared to control ([3]; line A3 (VK9A3.4.1), Calena)	Highest surviving concentration ([3]; line A3 (VK9A3.4.1), Calena)	Effect as compared to control [3, 10]	Highest surviving concentration [3, 10]	Effect as compared to control [3, 11]	Highest surviving concentration [3, 11]	Effect as compared to control ([4]; line ALS7.3 (KK24A14.4))	Highest surviving concentration ([4]; line ALS7.3 (KK24A14.4))	Effect as compared to control ([4]; line ALS8.3 (KK18A8))	Highest surviving concentration ([4]; line ALS8.3 (KK18A8))	spectrum of resistance of mutation W [5]	Effect as compared to control ([5]; line A2 (VK10A2.2), T1, W574L)	Highest surviving concentration ([5]; line A2 (VK10A2.2), T1, W574L)	Effect as compared to control [5, 12]	Highest surviving concentration [5, 12]	further results
COc1nc(C)nc(NC(=O)NS(=O)(=O)c2ccccc2Cl)n1 [CSU, Chlorsulfuron]	resistant	10 000	10 mg/L	1 000	1.0 mg/L	10	0.01 mg/L	1	0.001 mg/L	10	0.01 mg/L	10 000	10 mg/L	10 000	10 mg/L	good resistance	10 000	10 mg/L	1 000	1.0 mg/L	spectrum of resistance of mutation P [2]: specifically increased resistance; response of leaf segments to the herbicides [6]: susceptible; Effect as compared to control [7]: 1; Highest surviving concentration [7]: 0.001 mg/L; Effect as compared to control ([8]; line ALS 11.3 (VK10A5.3)): 10 000; Highest surviving concentration ([8]; line ALS 11.3 (VK10A5.3)): 10 mg/L; Effect as compared to control ([8]; line ALS22.3 (VK13A15.12)): 10 000; Highest surviving concentration ([8]; line ALS22.3 (VK13A15.12)): 10 mg/L
COCc1cnc(C2=NC(C)(C(C)C)C(=O)N2)c(C(=O)O)c1 (stereo not drawn) [IMI, Imazamox]	resistant	10	0.1 mg/L	10	0.1 mg/L	1 000	10 mg/L	100	1.0 mg/L	1 000	10 mg/L	1 000	10 mg/L	1 000	10 mg/L	good resistance	10 000	100 mg/L	1 000	10 mg/L	spectrum of resistance of mutation A [3]: specifically increased resistance; response of leaf segments to the herbicides [6]: susceptible; Effect as compared to control [7]: 1; Highest surviving concentration [7]: 0.01 mg/L; Effect as compared to control ([8]; line ALS 11.3 (VK10A5.3)): 1 000; Highest surviving concentration ([8]; line ALS 11.3 (VK10A5.3)): 10 mg/L; Effect as compared to control ([8]; line ALS22.3 (VK13A15.12)): 1 000; Highest surviving concentration ([8]; line ALS22.3 (VK13A15.12)): 10 mg/L
COC(=O)c1ccccc1S(=O)(=O)NC(=O)Nc1nc(C)nc(OC)n1 [MSU, Metsulfuron-methyl]	resistant	10	0.01 mg/L	10	0.01 mg/L	10	0.01 mg/L	1	0.001 mg/L	1	0.001 mg/L	1 000	1.0 mg/L	1 000	1.0 mg/L	less effective	100	0.1 mg/L	100	0.1 mg/L	increase in resistance as compared to non-transgenic control ([4]; lines bearing double mutations PW): 1 000; response of leaf segments to the herbicides [6]: susceptible; Effect as compared to control [7]: 1; Highest surviving concentration [7]: 0.001 mg/L; Effect as compared to control ([8]; line ALS 11.3 (VK10A5.3)): 100; Highest surviving concentration ([8]; line ALS 11.3 (VK10A5.3)): 0.1 mg/L; Effect as compared to control ([8]; line ALS22.3 (VK13A15.12)): 1 000; Highest surviving concentration ([8]; line ALS22.3 (VK13A15.12)): 1.0 mg/L
